# Laboratory results taken from publication PMC7979765, “trans-Translation inhibitors bind to a novel site on the ribosome and clear Neisseria gonorrhoeae in vivo” (Nature Communications, 2021).
# Where “and” joins values, the source holds several entries; their conditions need not be identical. Equal entries are not always repeated. Where two headings read alike, the source gives them in different places.
# Assay: Pharmacokinetic analyses in mice (PO suspension, IV, SC)
# Assay type: in vivo, mouse
# Protocol: Female CD-1 mice as above were fasted for 2 h prior, and 4 h after dosing. […] […], 3 mice from each group were euthanized by CO2 inhalation, blood was collected by cardiac puncture into K2EDTA collection tubes, and protein was precipitated and analysed by LC/MS-MS for plasma concentrations of MBX-4132. Data were analysed using WinNonLin.
# […] At 0.083, 0.5, 1, 4, 8 and 24 h post dose, blood was collected from 3 mice/group by tail vein or facial bleed into K2EDTA collection tubes, and protein was precipitated and analysed by LC/MS-MS for plasma concentrations of MBX-4132. Sampling was performed serially, with each mouse contributing sample at all time points. Data were analysed using WinNonLin.
compound,measurement,setting,value
O=C(Nc1nnc(-c2ccc(F)cc2)o1)N1CCc2ccccc2C1 [MBX 4132],MBX 4132 Concentrations in Mouse Plasma,"IV (10 mg/kg), 0.083 hrs, individual animals, 10 mg/kg",58700 ng/mL and 65700 ng/mL
same,MBX 4132 Concentrations in Mouse Plasma,"IV (10 mg/kg), 0.5 hrs, individual animals, 10 mg/kg",36200 ng/mL and 32000 ng/mL
same,MBX 4132 Concentrations in Mouse Plasma,"IV (10 mg/kg), 1 hrs, individual animals, 10 mg/kg",22900 ng/mL and 20200 ng/mL
same,MBX 4132 Concentrations in Mouse Plasma,"IV (10 mg/kg), 4 hrs, individual animals, 10 mg/kg",8580 ng/mL and 6390 ng/mL
same,MBX 4132 Concentrations in Mouse Plasma,"IV (10 mg/kg), 8 hrs, individual animals, 10 mg/kg",3980 ng/mL and 3290 ng/mL
same,MBX 4132 Concentrations in Mouse Plasma,"IV (10 mg/kg), 24 hrs, individual animals, 10 mg/kg",293 ng/mL and 149 ng/mL and 67.4 ng/mL
same,MBX 4132 Concentrations in Mouse Plasma,"PO (10 mg/kg susp.), 0.25 hrs, individual animals, 10 mg/kg",15389 ng/mL and 9102 ng/mL
same,MBX 4132 Concentrations in Mouse Plasma,"PO (10 mg/kg susp.), 0.5 hrs, individual animals, 10 mg/kg",16019 ng/mL and 12183 ng/mL
same,MBX 4132 Concentrations in Mouse Plasma,"PO (10 mg/kg susp.), 1 hrs, individual animals, 10 mg/kg",16437 ng/mL and 15902 ng/mL
same,MBX 4132 Concentrations in Mouse Plasma,"PO (10 mg/kg susp.), 2 hrs, individual animals, 10 mg/kg",10997 ng/mL and 18067 ng/mL
same,MBX 4132 Concentrations in Mouse Plasma,"PO (10 mg/kg susp.), 4 hrs, individual animals, 10 mg/kg",13379 ng/mL and 14121 ng/mL
same,MBX 4132 Concentrations in Mouse Plasma,"PO (10 mg/kg susp.), 8 hrs, individual animals, 10 mg/kg",11230 ng/mL and 9243 ng/mL
same,MBX 4132 Concentrations in Mouse Plasma,"PO (10 mg/kg susp.), 24 hrs, individual animals",<62.5 ng/mL
same,MBX 4132 Concentrations in Mouse Plasma,"PO (10 mg/kg), 0.083 hrs, individual animals, 10 mg/kg",809 ng/mL and 1080 ng/mL and 1900 ng/mL
same,MBX 4132 Concentrations in Mouse Plasma,"PO (10 mg/kg), 0.5 hrs, individual animals, 10 mg/kg",881 ng/mL and 1440 ng/mL and 1770 ng/mL
same,MBX 4132 Concentrations in Mouse Plasma,"PO (10 mg/kg), 1 hrs, individual animals, 10 mg/kg",1490 ng/mL and 1730 ng/mL
same,MBX 4132 Concentrations in Mouse Plasma,"PO (10 mg/kg), 4 hrs, individual animals, 10 mg/kg",1960 ng/mL and 2880 ng/mL
same,MBX 4132 Concentrations in Mouse Plasma,"PO (10 mg/kg), 8 hrs, individual animals, 10 mg/kg",4940 ng/mL and 6040 ng/mL
same,MBX 4132 Concentrations in Mouse Plasma,"PO (10 mg/kg), 24 hrs, individual animals, 10 mg/kg",66.5 ng/mL and 26.0 ng/mL and 81.5 ng/mL
same,MBX 4132 Concentrations in Mouse Plasma,"SC (10 mg/kg), 0.083 hrs, individual animals, 10 mg/kg",738 ng/mL and 530 ng/mL and 1090 ng/mL
same,MBX 4132 Concentrations in Mouse Plasma,"SC (10 mg/kg), 0.5 hrs, individual animals, 10 mg/kg",3760 ng/mL and 4140 ng/mL
same,MBX 4132 Concentrations in Mouse Plasma,"SC (10 mg/kg), 1 hrs, individual animals, 10 mg/kg",3190 ng/mL and 3390 ng/mL
same,MBX 4132 Concentrations in Mouse Plasma,"SC (10 mg/kg), 4 hrs, individual animals, 10 mg/kg",2890 ng/mL and 2390 ng/mL
same,MBX 4132 Concentrations in Mouse Plasma,"SC (10 mg/kg), 8 hrs, individual animals, 10 mg/kg",2800 ng/mL and 2480 ng/mL
same,MBX 4132 Concentrations in Mouse Plasma,"SC (10 mg/kg), 24 hrs, individual animals, 10 mg/kg",599 ng/mL and 627 ng/mL
same,MBX 4132 Concentrations in Mouse Plasma,"SC (25 mg/kg), 0.083 hrs, individual animals, 25 mg/kg",1190 ng/mL and 2170 ng/mL
same,MBX 4132 Concentrations in Mouse Plasma,"SC (25 mg/kg), 0.5 hrs, individual animals, 25 mg/kg",3170 ng/mL and 5250 ng/mL and 6610 ng/mL
same,MBX 4132 Concentrations in Mouse Plasma,"SC (25 mg/kg), 1 hrs, individual animals, 25 mg/kg",5270 ng/mL and 5450 ng/mL
same,MBX 4132 Concentrations in Mouse Plasma,"SC (25 mg/kg), 4 hrs, individual animals, 25 mg/kg",3050 ng/mL and 3600 ng/mL
same,MBX 4132 Concentrations in Mouse Plasma,"SC (25 mg/kg), 8 hrs, individual animals, 25 mg/kg",3850 ng/mL and 4860 ng/mL
same,MBX 4132 Concentrations in Mouse Plasma,"SC (25 mg/kg), 24 hrs, individual animals, 25 mg/kg",2190 ng/mL and 1680 ng/mL
same,concentration at 24 h,"female, CD-1, mouse, in vivo, iv, 10 mg/kg, IV (10 mg/kg), 24 hrs, mean of 3 animals, read-out: MBX 4132 Concentrations in Mouse Plasma, Mean",170 ng/mL
same,concentration at 0.25 h,"female, CD-1, mouse, in vivo, po, 10 mg/kg, PO (10 mg/kg susp.), 0.25 hrs, individual animals, read-out: MBX 4132 Concentrations in Mouse Plasma",14300 ng/mL
same,concentration at 0.25 h,"female, CD-1, mouse, in vivo, po, 10 mg/kg, PO (10 mg/kg susp.), 0.25 hrs, mean of 3 animals, read-out: MBX 4132 Concentrations in Mouse Plasma, Mean",12900 ng/mL
same,concentration at 0.5 h,"female, CD-1, mouse, in vivo, po, 10 mg/kg, PO (10 mg/kg susp.), 0.5 hrs, individual animals, read-out: MBX 4132 Concentrations in Mouse Plasma",13900 ng/mL
same,concentration at 0.5 h,"female, CD-1, mouse, in vivo, po, 10 mg/kg, PO (10 mg/kg susp.), 0.5 hrs, mean of 3 animals, read-out: MBX 4132 Concentrations in Mouse Plasma, Mean",14000 ng/mL
same,concentration at 1 h,"female, CD-1, mouse, in vivo, po, 10 mg/kg, PO (10 mg/kg susp.), 1 hrs, individual animals, read-out: MBX 4132 Concentrations in Mouse Plasma",12100 ng/mL
same,concentration at 1 h,"female, CD-1, mouse, in vivo, po, 10 mg/kg, PO (10 mg/kg susp.), 1 hrs, mean of 3 animals, read-out: MBX 4132 Concentrations in Mouse Plasma, Mean",14800 ng/mL
same,concentration at 2 h,"female, CD-1, mouse, in vivo, po, 10 mg/kg, PO (10 mg/kg susp.), 2 hrs, individual animals, read-out: MBX 4132 Concentrations in Mouse Plasma",15000 ng/mL
same,concentration at 2 h,"female, CD-1, mouse, in vivo, po, 10 mg/kg, PO (10 mg/kg susp.), 2 hrs, mean of 3 animals, read-out: MBX 4132 Concentrations in Mouse Plasma, Mean",14700 ng/mL
same,concentration at 4 h,"female, CD-1, mouse, in vivo, po, 10 mg/kg, PO (10 mg/kg susp.), 4 hrs, individual animals, read-out: MBX 4132 Concentrations in Mouse Plasma",13300 ng/mL
same,concentration at 4 h,"female, CD-1, mouse, in vivo, po, 10 mg/kg, PO (10 mg/kg susp.), 4 hrs, mean of 3 animals, read-out: MBX 4132 Concentrations in Mouse Plasma, Mean",13600 ng/mL
same,concentration at 8 h,"female, CD-1, mouse, in vivo, po, 10 mg/kg, PO (10 mg/kg susp.), 8 hrs, individual animals, read-out: MBX 4132 Concentrations in Mouse Plasma",9290 ng/mL
